Data taken from patent US20240041042A1, “1-(PYRIDYL)-5-AZINYLPYRAZOLE DERIVATIVES, AND THEIR USE FOR CONTROL OF UNDESIRED PLANT GROWTH” (Bayer Aktiengesellschaft, priority 2020, published 2024).
Where two headings read alike, the source gives them in different places.

Experiments:
Format in all cases: in vivo
[1] = tested on: Viola tricolor (VIOTR); experiment: Post-emergence herbicidal action against VIOTR
Procedure, shortened: (§1)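 Post-emergence greenhouse spray, one-leaf stage, 600 l/ha water plus 0.5% additive; WP or EC formulations; application rates 320 g/ha or lower. Visual % damage vs untreated controls at ~3 weeks.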

[2] = tested on: Echinochloa crus-galli (ECHCG); experiment: Pre-emergence herbicidal action against ECHCG; settings: dosage 320 g/ha
Procedure, shortened: (§2)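 Pre-emergence soil-surface spray, WP/EC formulation, 0.5% additive, 600 l/ha water, rates of 320 g/ha or lower. Greenhouse, ~3 wk. Visual score, % of untreated control (100% = plants dead, 0% = like control).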

[3] = tested on: Amaranthus retroflexus (AMARE); experiment: Pre-emergence herbicidal action against AMARE; settings: visual scoring after about 3 weeks vs untreated controls
Procedure, shortened: as §2

[4] = tested on: Lolium rigidum (LOLRI); experiment: Pre-emergence herbicidal action against LOLRI
Procedure, shortened: as §2

[5] = tested on: Pharbitis purpurea (PHBPU); experiment: Post-emergence herbicidal action against PHBPU; settings: dosage 320 g/ha
Procedure, shortened: as §1

[6] = tested on: Amaranthus retroflexus (AMARE); experiment: Post-emergence herbicidal action against AMARE; settings: 320 g/ha, visual rating about 3 weeks after treatment
Procedure, shortened: as §1

[7] = tested on: Lolium rigidum (LOLRI); experiment: Post-emergence herbicidal action against LOLRI
Procedure, shortened: as §1

[8] = tested on: Digitaria sanguinalis (DIGSA); experiment: Pre-emergence herbicidal action against DIGSA
Procedure, shortened: as §2

[9] = tested on: Zea mays (ZEAMX); settings: pre-emergence, 80 g/ha, crop plant compatibility, in comparison to untreated controls
Procedure, shortened: (§3)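 Crop injury rated visually in percent against untreated plants roughly 3 weeks after treatment (0% no effect, 100% plants dead). Compounds, as WP or EC with 0.5% additive in 600 l/ha water, were applied to the covering soil right after sowing; greenhouse growth. Suffixes a, b, c denote different dosages.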

[10] = tested on: Brassica napus (BRSNW); settings: 80 g/ha, crop plant compatibility, in comparison to untreated controls
Procedure, shortened: as §3

[11] = tested on: Matricaria inodora (MATIN); experiment: Pre-emergence herbicidal action against MATIN; settings: dosage 320 g/ha
Procedure, shortened: as §2

[12] = tested on: Echinochloa crus-galli (ECHCG); experiment: Post-emergence herbicidal action against ECHCG
Procedure, shortened: as §1

[13] = tested on: Viola tricolor (VIOTR); experiment: Pre-emergence herbicidal action against VIOTR
Procedure, shortened: as §2

[14] = tested on: Digitaria sanguinalis (DIGSA); experiment: Post-emergence herbicidal action against DIGSA; settings: 320 g/ha, visual rating about 3 weeks after treatment
Procedure, shortened: as §1

[15] = tested on: Matricaria inodora (MATIN); experiment: Post-emergence herbicidal action against MATIN; settings: dosage 320 g/ha
Procedure, shortened: as §1

[16] = tested on: Setaria viridis (SETVI); experiment: Post-emergence herbicidal action against SETVI; settings: dosage 320 g/ha
Procedure, shortened: as §1

[17] = tested on: Alopecurus myosuroides (ALOMY); experiment: Post-emergence herbicidal action against ALOMY; settings: visual rating about 3 weeks after treatment vs untreated controls (100% = plants have died, 0% = like control plants)
Procedure, shortened: as §1

[18] = tested on: Pharbitis purpurea (PHBPU); experiment: Pre-emergence herbicidal action against PHBPU; settings: dosage 320 g/ha
Procedure, shortened: as §2

[19] = tested on: Verconica persica (VERPE); experiment: Post-emergence herbicidal action against VERPE
Procedure, shortened: as §1

[20] = tested on: Setaria viridis (SETVI); experiment: Pre-emergence herbicidal action against SETVI; settings: dosage 320 g/ha
Procedure, shortened: as §2

[21] = tested on: Polygonum convolvulus (POLCO); experiment: Pre-emergence herbicidal action against POLCO
Procedure, shortened: as §2

[22] = tested on: Avena fatua (AVEFA); experiment: Pre-emergence herbicidal action against AVEFA; settings: visual scoring after about 3 weeks vs untreated controls
Procedure, shortened: as §2

[23] = tested on: Alopecurus myosuroides (ALOMY); experiment: Pre-emergence herbicidal action against ALOMY; settings: scored visually after about 3 weeks, 100% = plants have died
Procedure, shortened: as §2

[24] = tested on: Avena fatua (AVEFA); experiment: Post-emergence herbicidal action against AVEFA; settings: 80 g/ha, visual rating about 3 weeks after treatment
Procedure, shortened: as §1

[25] = tested on: Zea mays (ZEAMX)
Procedure, shortened: (§4)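 Test crops were treated 2 to 3 weeks after sowing, once they reached one leaf, by spraying compound in water with 0.5% additive at 600 l/ha. Visual scoring compared them with untreated controls roughly 3 weeks on, and appendices a, b and c denote different doses.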

[26] = tested on: Oryza sativa (ORYSA); settings: crop plant compatibility
Procedure, shortened: as §4

[27] = tested on: Verconica persica (VERPE); experiment: Pre-emergence herbicidal action against VERPE; settings: dosage 320 g/ha
Procedure, shortened: as §2

COC(=O)COc1nn(-c2nc(F)ccc2F)c(-c2ccc(F)nc2)c1C1CC1 [Example I-300]
100%: Pre-emergence action against DIGSA in % ([8]; dosage 320 g/ha)
90%: Post-emergence action against VIOTR in % ([1]; 320 g/ha) | Pre-emergence action against ECHCG in % [2] | Pre-emergence action against AMARE in % ([3]; 320 g/ha) | Pre-emergence action against LOLRI in % ([4]; dosage 320 g/ha) | Post-emergence action against LOLRI in % ([7]; dosage 80 g/ha) | Post-emergence action against LOLRI in % ([7]; dosage 320 g/ha) | Pre-emergence action against DIGSA in % ([8]; 80 g/ha, visual scoring after about 3 weeks vs untreated controls) | Post-emergence action against ECHCG in % ([12]; dosage 320 g/ha) | Pre-emergence action against VIOTR in % ([13]; 320 g/ha, Viola tricolor) | Post-emergence action against ALOMY in % ([17]; 320 g/ha) | Pre-emergence action against SETVI in % [20]
20%: Pre-emergence action against BRSNW in % [10]
80%: Post-emergence action against VIOTR in % ([1]; 80 g/ha) | Pre-emergence action against LOLRI in % ([4]; dosage 80 g/ha) | Post-emergence action against PHBPU in % [5] | Post-emergence action against AMARE in % [6] | Pre-emergence action against MATIN in % [11] | Post-emergence action against ECHCG in % ([12]; dosage 80 g/ha) | Post-emergence action against DIGSA in % [14] | Post-emergence action against MATIN in % [15] | Post-emergence action against SETVI in % [16] | Post-emergence action against ALOMY in % ([17]; 80 g/ha) | Pre-emergence action against PHBPU in % [18] | Post-emergence action against VERPE in % ([19]; 320 g/ha, VERPE)
10%: Pre-emergence action against ZEAMX in % [9]

C[C@@H](Oc1nn(-c2ncccc2Cl)c(-c2ccc(F)nc2)c1Br)C(=O)O [Example I-25]
100%: Pre-emergence action against AMARE in % ([3]; 320 g/ha) | Pre-emergence action against LOLRI in % ([4]; dosage 320 g/ha) | Pre-emergence action against AVEFA in % ([22]; 320 g/ha) | Pre-emergence action against VIOTR in % ([13]; 320 g/ha, Viola tricolor) | Pre-emergence action against VIOTR in % ([13]; dosage 80 g/ha) | Pre-emergence action against SETVI in % [20]
10%: Post-emergence action against ZEAMX in % (crop plant compatibility) ([25]; 20 g/ha, ZEAMX, effect in comparison to untreated controls) | Post-emergence action against ORYSA in % ([26]; 80 g/ha, effect in comparison to untreated controls) | Pre-emergence action against ZEAMX in % [9] | Pre-emergence action against BRSNW in % [10]
20%: Post-emergence action against ZEAMX in % ([25]; crop plant compatibility, 80 g/ha, effect vs untreated controls)
80%: Pre-emergence action against POLCO in % ([21]; dosage 80 g/ha) | Pre-emergence action against ALOMY ([23]; 80 g/ha) | Post-emergence action against LOLRI in % ([7]; dosage 80 g/ha) | Post-emergence action against VERPE in % ([19]; dosage 80 g/ha)
90%: Pre-emergence action against ECHCG in % [2] | Pre-emergence action against POLCO in % ([21]; dosage 320 g/ha) | Pre-emergence action against AMARE in % ([3]; 80 g/ha) | Pre-emergence action against AVEFA in % ([22]; 80 g/ha) | Pre-emergence action against ALOMY ([23]; 320 g/ha) | Post-emergence action against AVEFA in % [24] | Pre-emergence action against MATIN in % [11] | Post-emergence action against ALOMY in % ([17]; 80 g/ha) | Pre-emergence action against VERPE in % [27]
0%: Post-emergence action against ORYSA in % ([26]; 20 g/ha, effect vs untreated controls)
